Results from ChEMBL document CHEMBL4334471, “Discovery of 1,8-disubstituted-[1,2,3]triazolo[4,5-c]quinoline derivatives as a new class of Hippo signaling pathway inhibitors” (Bioorg Med Chem Lett, 2019).

Legend:
[1] = biological target: Phosphorylase b kinase gamma catalytic chain, skeletal muscle/heart isoform (Homo sapiens) (UniProt Q16816); assay: Inhibition of recombinant full-length human PhKgamma1 assessed as residual activity at 10 uM using KKLNRTLSFAEPG as substrate incubated for 40 mins in presence of [gamma33P]ATP by scintillation counting based radiometry assay relative to control
[2] = biological target: Non-receptor tyrosine-protein kinase TYK2 (Homo sapiens) (UniProt P29597); assay: Inhibition of recombinant human TYK2 (875 to end residues) assessed as residual activity at 10 uM using GGMEDIYFEFMGGKKK as substrate incubated for 40 mins in presence of [gamma33P]ATP by scintillation counting based radiometry assay relative to control
Sequence of Non-receptor tyrosine-protein kinase TYK2 (Homo sapiens) (P29597 whole entry): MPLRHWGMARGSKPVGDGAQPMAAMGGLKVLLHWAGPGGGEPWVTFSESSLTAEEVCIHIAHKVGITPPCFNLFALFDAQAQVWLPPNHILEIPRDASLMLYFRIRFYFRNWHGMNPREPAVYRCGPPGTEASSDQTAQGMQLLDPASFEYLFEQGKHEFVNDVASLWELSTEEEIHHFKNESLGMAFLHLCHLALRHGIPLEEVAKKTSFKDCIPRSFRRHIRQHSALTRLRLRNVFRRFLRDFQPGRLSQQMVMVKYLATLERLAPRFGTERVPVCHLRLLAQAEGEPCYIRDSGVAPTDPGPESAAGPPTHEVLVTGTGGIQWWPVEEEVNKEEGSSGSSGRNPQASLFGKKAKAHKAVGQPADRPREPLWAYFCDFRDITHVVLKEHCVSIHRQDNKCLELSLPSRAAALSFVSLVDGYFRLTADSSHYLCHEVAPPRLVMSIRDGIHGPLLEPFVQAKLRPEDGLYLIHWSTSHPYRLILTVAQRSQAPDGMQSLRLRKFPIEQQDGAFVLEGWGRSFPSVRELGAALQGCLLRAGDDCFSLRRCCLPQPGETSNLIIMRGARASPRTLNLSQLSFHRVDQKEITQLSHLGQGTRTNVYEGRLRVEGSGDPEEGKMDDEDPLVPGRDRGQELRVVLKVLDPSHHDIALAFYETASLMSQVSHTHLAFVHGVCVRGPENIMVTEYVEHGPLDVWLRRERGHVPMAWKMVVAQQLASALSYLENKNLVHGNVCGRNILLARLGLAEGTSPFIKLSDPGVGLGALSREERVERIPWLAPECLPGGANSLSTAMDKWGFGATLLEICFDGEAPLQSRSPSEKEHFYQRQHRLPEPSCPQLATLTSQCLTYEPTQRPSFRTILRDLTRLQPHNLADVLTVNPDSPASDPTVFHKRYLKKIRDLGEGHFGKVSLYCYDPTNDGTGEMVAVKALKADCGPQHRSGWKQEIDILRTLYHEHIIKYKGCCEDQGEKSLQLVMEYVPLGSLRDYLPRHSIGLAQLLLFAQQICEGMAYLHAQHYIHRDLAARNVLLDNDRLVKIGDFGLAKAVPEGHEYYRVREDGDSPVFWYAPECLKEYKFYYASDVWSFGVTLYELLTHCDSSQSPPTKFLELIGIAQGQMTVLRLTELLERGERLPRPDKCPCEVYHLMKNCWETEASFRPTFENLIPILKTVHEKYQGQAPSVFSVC

[3] = biological target: Muscle, skeletal receptor tyrosine-protein kinase (Homo sapiens) (UniProt O15146); assay: Inhibition of recombinant human MUSK (530 to end residues) assessed as residual activity at 10 uM using myelin basic protein as substrate measured after 40 mins in presence of [gamma33P]ATP by scintillation counting based radiometry assay relative to control
Homo sapiens = organism: Homo sapiens; assay: Inhibition of human MAPK2 assessed as residual activity at 10 uM relative to control
[4] = biological target: Serine/threonine-protein kinase ULK1 (Homo sapiens) (UniProt O75385); assay: Inhibition of recombinant human ULK1 (1 to 314 residues) assessed as residual activity at 10 uM using casein as substrate incubated for 40 mins in presence of [gamma33P]ATP by scintillation counting based radiometry assay relative to control
[5] = biological target: PAS domain-containing serine/threonine-protein kinase (Homo sapiens) (UniProt Q96RG2); assay: Inhibition of recombinant human PASK (995 to end residues) assessed as residual activity at 10 uM using KKLNRTLSFAEPG as substrate measured after 40 mins in presence of [gamma33P]ATP by scintillation counting based radiometry assay relative to control
[6] = biological target: Dual specificity mitogen-activated protein kinase kinase 1 (Homo sapiens) (UniProt Q02750); assay: Inhibition of recombinant human MEK1 assessed as residual activity at 10 uM using inactive MAPK2 as substrate incubated for 40 mins in presence of [gamma-33ATP by scintillation counting based radiometry assay relative to control
[7] = biological target: Platelet-derived growth factor receptor beta (Homo sapiens) (UniProt P09619); assay: Inhibition of human PDGFRbeta (557 to end residues) assessed as residual activity at 10 uM using poly(Glu, Tyr) 4:1 as substrate measured after 40 mins in presence of [gamma33P]ATP by scintillation counting based radiometry assay relative to control
Sequence of Platelet-derived growth factor receptor beta (Homo sapiens) (P09619 whole entry): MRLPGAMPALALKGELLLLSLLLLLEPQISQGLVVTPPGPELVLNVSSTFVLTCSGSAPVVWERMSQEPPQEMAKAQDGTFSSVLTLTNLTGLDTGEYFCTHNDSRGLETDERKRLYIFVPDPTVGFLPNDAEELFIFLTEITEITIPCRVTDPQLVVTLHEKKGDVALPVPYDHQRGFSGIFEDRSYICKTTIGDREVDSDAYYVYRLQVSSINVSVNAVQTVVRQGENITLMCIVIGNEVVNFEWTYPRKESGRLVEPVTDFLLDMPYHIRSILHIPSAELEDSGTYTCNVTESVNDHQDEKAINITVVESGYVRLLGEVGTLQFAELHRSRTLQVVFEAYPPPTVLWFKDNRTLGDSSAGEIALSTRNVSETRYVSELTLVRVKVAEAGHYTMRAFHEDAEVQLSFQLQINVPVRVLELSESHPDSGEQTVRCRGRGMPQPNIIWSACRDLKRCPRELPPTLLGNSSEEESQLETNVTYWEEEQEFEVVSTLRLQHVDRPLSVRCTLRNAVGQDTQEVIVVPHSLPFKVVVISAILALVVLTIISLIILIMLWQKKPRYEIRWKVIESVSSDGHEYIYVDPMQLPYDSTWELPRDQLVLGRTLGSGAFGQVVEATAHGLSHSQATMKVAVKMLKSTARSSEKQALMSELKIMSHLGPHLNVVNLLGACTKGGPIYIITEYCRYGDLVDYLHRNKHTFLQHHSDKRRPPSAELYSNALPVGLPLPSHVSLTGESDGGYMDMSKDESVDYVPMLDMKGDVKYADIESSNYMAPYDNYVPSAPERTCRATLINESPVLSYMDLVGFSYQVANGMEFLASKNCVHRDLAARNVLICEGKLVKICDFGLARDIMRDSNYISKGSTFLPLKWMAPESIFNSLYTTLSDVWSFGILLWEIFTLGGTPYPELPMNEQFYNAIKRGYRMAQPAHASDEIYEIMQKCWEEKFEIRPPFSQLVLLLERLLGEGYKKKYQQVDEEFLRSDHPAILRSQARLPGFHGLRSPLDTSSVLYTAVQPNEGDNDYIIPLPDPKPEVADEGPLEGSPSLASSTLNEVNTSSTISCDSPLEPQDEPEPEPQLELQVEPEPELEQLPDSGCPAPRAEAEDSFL

[8] = biological target: 5'-AMP-activated protein kinase catalytic subunit alpha-1 (Homo sapiens) (UniProt Q13131); assay: Inhibition of recombinant full length human AMPKalpha1 assessed as residual activity at 10 uM using AMARAASAAALAR as substrate incubated for 40 mins in presence of [gamma-33ATP] by scintillation counting based radiometry assay relative to control
[9] = tested on: Receptor tyrosine-protein kinase erbB-2 (Homo sapiens), P04626 [G778D]; assay: Inhibition of recombinant human ERBB2 G778D mutant (676 to end residues) assessed as residual activity at 10 uM using poly(Glu, Tyr) 4:1 as substrate at 40 mins in presence of [gamma-33ATP] by scintillation counting based radiometry assay relative to control
[10] = biological target: Dual specificity protein kinase CLK3 (Homo sapiens) (UniProt P49761); assay: Inhibition of recombinant full length human CLK3 assessed as residual activity at 10 uM using ERMRPRKRQGSVRRRV as substrate incubated 40 mins in presence of [gamma-33ATP] by scintillation counting based radiometry assay relative to control
Sequence of Dual specificity protein kinase CLK3 (Homo sapiens) (P49761 whole entry, looked up): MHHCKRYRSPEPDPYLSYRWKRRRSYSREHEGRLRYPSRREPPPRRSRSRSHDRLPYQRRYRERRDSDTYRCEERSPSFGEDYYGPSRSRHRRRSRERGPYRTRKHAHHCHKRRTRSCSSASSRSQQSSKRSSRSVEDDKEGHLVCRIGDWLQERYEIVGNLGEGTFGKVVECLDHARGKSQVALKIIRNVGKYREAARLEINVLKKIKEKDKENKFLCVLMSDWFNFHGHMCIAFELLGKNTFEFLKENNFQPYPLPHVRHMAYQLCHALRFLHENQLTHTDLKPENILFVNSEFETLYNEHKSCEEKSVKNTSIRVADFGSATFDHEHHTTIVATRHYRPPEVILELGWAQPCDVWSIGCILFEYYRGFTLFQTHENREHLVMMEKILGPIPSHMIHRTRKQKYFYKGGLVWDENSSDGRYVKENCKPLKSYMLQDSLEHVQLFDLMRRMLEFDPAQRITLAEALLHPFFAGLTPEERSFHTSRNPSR

[11] = biological target: CDK2/Cyclin A1 (Homo sapiens) (UniProt P24941+P78396); assay: Inhibition of recombinant full length human CDK2/CyclinA assessed as residual activity at 10 uM using Histone H1 as substrate incubated for 40 mins in presence of [gamma-33ATP] by scintillation counting based radiometry assay relative to control; assay type: protein-complex assay
[12] = biological target: Mitogen-activated protein kinase 11 (Homo sapiens) (UniProt Q15759); assay: Inhibition of recombinant human full length SAPK2b assessed as residual activity at 10 uM using myelin basic protein as substrate incubated for 40 mins in presence of [gamma33P]ATP by scintillation counting based radiometry assay relative to control
[13] = tested on: Serine/threonine-protein kinase Chk2 (Homo sapiens), O96017 [I157T]; assay: Inhibition of recombinant human CHK2 I157T mutant (5 to end residues) assessed as residual activity at 10 uM using KKKVSRSGLYRSPSMPENLNRPR as substrate incubated for 40 mins in presence of [gamma-33ATP] by scintillation counting based radiometry assay relative to control
Sequence of Serine/threonine-protein kinase Chk2 (Homo sapiens), O96017 [I157T] (O96017 whole entry I157T): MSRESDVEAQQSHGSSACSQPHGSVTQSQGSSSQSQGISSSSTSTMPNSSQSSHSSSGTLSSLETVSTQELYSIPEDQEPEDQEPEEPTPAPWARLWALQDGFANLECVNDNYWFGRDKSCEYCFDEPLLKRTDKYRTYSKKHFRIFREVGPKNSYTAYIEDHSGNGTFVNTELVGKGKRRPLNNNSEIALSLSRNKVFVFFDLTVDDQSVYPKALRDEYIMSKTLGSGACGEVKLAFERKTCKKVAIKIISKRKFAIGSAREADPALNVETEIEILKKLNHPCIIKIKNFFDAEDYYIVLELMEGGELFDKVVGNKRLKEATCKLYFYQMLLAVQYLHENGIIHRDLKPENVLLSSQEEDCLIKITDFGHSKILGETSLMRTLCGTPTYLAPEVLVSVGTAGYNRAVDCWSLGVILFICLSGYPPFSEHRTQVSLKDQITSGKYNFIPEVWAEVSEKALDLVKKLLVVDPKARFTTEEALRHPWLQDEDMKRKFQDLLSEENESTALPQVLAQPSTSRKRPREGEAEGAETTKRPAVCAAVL

[14] = biological target: Serine/threonine-protein kinase 32B (Homo sapiens) (UniProt Q9NY57); assay: Inhibition of recombinant human full length STK32B assessed as residual activity at 10 uM using casein as substrate incubated for 40 mins in presence of [gamma33P]ATP by scintillation counting based radiometry assay relative to control
Mus musculus = organism: Mus musculus; assay: Inhibition of recombinant full-length mouse PI3K p110/p85 H1047R mutant assessed as residual activity at 10 uM using phosphatidylinositol-4, 5-bisphosphate as substrate incubated for 40 mins in presence of [gamma33P]ATP by scintillation counting based radiometry assay relative to control
[15] = tested on: Proto-oncogene tyrosine-protein kinase receptor Ret (Homo sapiens), P07949 [V804M]; assay: Inhibition of recombinant human Ret V804M mutant (658 to end residues) assessed as residual activity at 10 uM using KKKVSRSGLYRSPSMPENLNRPR as substrate incubated for 40 mins in presence of [gamma33P]ATP by scintillation counting based radiometry assay relative to control
Sequence of Proto-oncogene tyrosine-protein kinase receptor Ret (Homo sapiens), P07949 [V804M] (P07949 whole entry V804M, the tested form may be a part): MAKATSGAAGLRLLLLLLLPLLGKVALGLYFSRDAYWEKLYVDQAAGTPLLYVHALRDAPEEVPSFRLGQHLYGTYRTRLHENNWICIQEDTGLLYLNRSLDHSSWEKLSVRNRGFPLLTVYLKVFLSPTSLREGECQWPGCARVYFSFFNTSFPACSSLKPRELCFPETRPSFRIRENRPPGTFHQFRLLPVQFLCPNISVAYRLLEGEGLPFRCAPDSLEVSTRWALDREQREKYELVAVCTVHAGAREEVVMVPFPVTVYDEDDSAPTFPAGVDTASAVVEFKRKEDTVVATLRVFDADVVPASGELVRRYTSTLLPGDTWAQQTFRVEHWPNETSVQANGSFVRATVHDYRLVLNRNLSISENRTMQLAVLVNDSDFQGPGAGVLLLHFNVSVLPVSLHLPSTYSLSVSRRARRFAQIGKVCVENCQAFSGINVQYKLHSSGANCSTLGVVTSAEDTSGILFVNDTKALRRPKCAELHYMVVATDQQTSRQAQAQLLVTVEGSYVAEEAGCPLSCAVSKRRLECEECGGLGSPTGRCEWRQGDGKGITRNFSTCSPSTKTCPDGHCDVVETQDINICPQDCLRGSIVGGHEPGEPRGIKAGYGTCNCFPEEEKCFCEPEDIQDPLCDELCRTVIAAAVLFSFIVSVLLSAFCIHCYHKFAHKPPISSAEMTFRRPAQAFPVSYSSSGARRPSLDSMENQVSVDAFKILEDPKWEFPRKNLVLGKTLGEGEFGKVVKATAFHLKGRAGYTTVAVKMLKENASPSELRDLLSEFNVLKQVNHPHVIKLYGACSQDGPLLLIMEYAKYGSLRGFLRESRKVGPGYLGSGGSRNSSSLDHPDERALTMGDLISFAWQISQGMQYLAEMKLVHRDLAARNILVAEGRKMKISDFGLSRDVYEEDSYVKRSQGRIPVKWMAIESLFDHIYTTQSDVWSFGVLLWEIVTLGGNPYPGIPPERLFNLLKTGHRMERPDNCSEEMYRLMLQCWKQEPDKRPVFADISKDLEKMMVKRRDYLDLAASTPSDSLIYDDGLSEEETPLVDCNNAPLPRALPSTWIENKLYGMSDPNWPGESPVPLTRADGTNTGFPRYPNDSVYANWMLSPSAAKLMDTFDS

[16] = biological target: Serine/threonine-protein kinase MRCK alpha (Homo sapiens) (UniProt Q5VT25); assay: Inhibition of recombinant human MRCKalpha (1 to 473 residues) assessed as residual activity at 10 uM using KKRNRTLTV as substrate incubated for 40 mins in presence of [gamma-33ATP by scintillation counting based radiometry assay relative to control
[17] = biological target: Protein-tyrosine kinase 2-beta (Homo sapiens) (UniProt Q14289); assay: Inhibition of recombinant human full length PYK2 assessed as residual activity at 10 uM using poly(Glu, Tyr) 4:1 as substrate incubated for 40 mins in presence of [gamma33P]ATP by scintillation counting based radiometry assay relative to control
[18] = biological target: Myosin light chain kinase 2, skeletal/cardiac muscle (Homo sapiens) (UniProt Q9H1R3); assay: Inhibition of recombinant full length human MYLK2 assessed as residual activity at 10 uM using KKLNRTLSFAEPG as substrate measured after 40 mins in presence of [gamma33P]ATP by scintillation counting based radiometry assay relative to control
Sequence of Myosin light chain kinase 2, skeletal/cardiac muscle (Homo sapiens) (Q9H1R3 whole entry): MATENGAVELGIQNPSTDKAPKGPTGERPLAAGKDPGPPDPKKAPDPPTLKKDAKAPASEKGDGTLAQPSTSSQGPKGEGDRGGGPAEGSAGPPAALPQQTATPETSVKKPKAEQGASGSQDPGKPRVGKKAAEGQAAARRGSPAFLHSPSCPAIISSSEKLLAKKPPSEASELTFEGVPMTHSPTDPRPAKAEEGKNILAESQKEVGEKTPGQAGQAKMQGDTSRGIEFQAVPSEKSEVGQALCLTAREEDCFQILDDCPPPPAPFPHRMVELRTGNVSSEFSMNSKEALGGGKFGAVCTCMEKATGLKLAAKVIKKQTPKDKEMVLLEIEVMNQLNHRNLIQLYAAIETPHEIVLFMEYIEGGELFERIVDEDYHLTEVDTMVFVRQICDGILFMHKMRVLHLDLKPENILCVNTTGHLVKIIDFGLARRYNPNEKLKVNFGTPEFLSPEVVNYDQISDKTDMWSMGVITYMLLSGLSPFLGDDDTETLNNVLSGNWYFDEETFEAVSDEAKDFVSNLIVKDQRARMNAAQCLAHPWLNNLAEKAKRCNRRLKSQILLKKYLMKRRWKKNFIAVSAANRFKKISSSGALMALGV

[19] = biological target: Serine/threonine-protein kinase 33 (Homo sapiens) (UniProt Q9BYT3); assay: Inhibition of recombinant full-length human STK33 assessed as residual activity at 10 uM using myelin basic protein as substrate incubated for 40 mins in presence of [gamma33P]ATP by scintillation counting based radiometry assay relative to control

Structure (SMILES): C[C@@H](c1ccccc1)n1nnc2cnc3ccc(-c4cnc5[nH]ccc5c4)cc3c21
- Activity [1]: 70%
- Activity [2]: 60%
- Activity [3]: 74%
- Activity (Homo sapiens): 93%
- Activity [4]: 91%
- Activity [5]: 30%
- Activity [6]: 85%
- Activity [7]: 79%
- Activity [8]: 45%
- Activity [9]: 120%
- Activity [10]: 66%
- Activity [11]: 63%
- Activity [12]: 93%
- Activity [13]: 59%
- Activity [14]: 88%
- Activity (Mus musculus): 5%
- Activity [15]: 69%
- Activity [16]: 105%
- Activity [17]: 59%
- Activity [18]: 70%
- Activity [19]: 91%
